# Measured values taken from publication PMC5439695 (PLoS ONE, 2017).
# Experiments:
# estrogen receptor (ER) = conditions: ER antagonist; ToxCast chemicals only; ref Judson 2015; cited from earlier work
# HepG2 cells [1] = assay: CellTox Green Cytotoxicity Assay (flor) in HepG2, HepG2[flor]; assay type: cell-based, human; conditions: HepG2 flor;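 on hepg2 flor emax 0: percent activity versus DMSO-only wells with baseline rescaled to 0%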;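 on hepg2 flor emax 40: percent activity versus DMSO-only wells with baseline rescaled to 0%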
# HEK293 cells [2] = conditions: HEK293 glo
# HEK293 cells [3] = conditions: HEK293 flor
# HepG2 cells [4] = conditions: HepG2 glo
# [5] = tested on: HEK293 and HepG2 cell lines; conditions: any activity in any time point/assay
# Wherever hek293 flor emax 0 is given: unit not given here.
smiles,measurement,setting,value
C[C@@]1(c2ccc(Oc3ccccc3)cc2)OC(=O)N(Nc2ccccc2)C1=O (racemic) [Famoxadone],AUC score in Judson 2015,estrogen receptor (ER),0.000714
"CCC(C)(C)c1ccc(O)c(C(C)(C)CC)c1 [2,4-Bis(2-methylbutan-2-yl)phenol]",AUC score in Judson 2015,estrogen receptor (ER),0.00113
"CC(C)(C)c1ccc(O)c(C(C)(C)C)c1 [2,4-Di-tert-butylphenol]",AUC score in Judson 2015,estrogen receptor (ER),0
CC/C(=C(\c1ccc(O)cc1)c1ccc(OCCN(C)C)cc1)c1ccccc1 [4-Hydroxytamoxifen],AUC score in Judson 2015,estrogen receptor (ER),0.686
Cc1cc(N)c2cc(NC(=O)Nc3ccc4nc(C)cc(N)c4c3)ccc2n1.Cl.Cl [Aminoquinuride dihydrochloride],hepg2_flor_auc,HepG2 cells [1],0
same,hepg2_flor_time,HepG2 cells [1],48
same,hepg2_flor_bin,HepG2 cells [1]; kinetics bin,inactive
same,hepg2_flor_emax_0,HepG2 cells [1]; time point 0,0
same,hepg2_flor_pod_0,HepG2 cells [1]; time point 0,-4.417
same,hepg2_flor_wauc_0,HepG2 cells [1]; time point 0,0
same,hepg2_flor_emax_8,HepG2 cells [1]; time point 8,0
same,hepg2_flor_pod_8,HepG2 cells [1]; time point 8,-4.417
same,hepg2_flor_wauc_8,HepG2 cells [1]; time point 8,0
same,hepg2_flor_emax_16,HepG2 cells [1]; time point 16,0
same,hepg2_flor_pod_16,HepG2 cells [1]; time point 16,-4.417
same,hepg2_flor_wauc_16,HepG2 cells [1]; time point 16,0
same,hepg2_flor_emax_24,HepG2 cells [1]; time point 24,0
same,hepg2_flor_pod_24,HepG2 cells [1]; time point 24,-4.417
same,hepg2_flor_wauc_24,HepG2 cells [1]; time point 24,0
same,hepg2_flor_emax_32,HepG2 cells [1]; time point 32,0
same,hepg2_flor_pod_32,HepG2 cells [1]; time point 32,-4.417
same,hepg2_flor_wauc_32,HepG2 cells [1]; time point 32,0
same,hepg2_flor_emax_40,HepG2 cells [1]; time point 40,0
same,hepg2_flor_pod_40,HepG2 cells [1]; time point 40,-4.417
same,hepg2_flor_wauc_40,HepG2 cells [1]; time point 40,0
same,hek293_glo_auc,HEK293 cells [2],0
same,hek293_glo_time,HEK293 cells [2],48
same,hek293_glo_bin,HEK293 cells [2]; kinetics bin,inactive
same,hek293_glo_emax_0,HEK293 cells [2]; time point 0,0
same,hek293_glo_pod_0,HEK293 cells [2]; time point 0,-4.417
same,hek293_glo_wauc_0,HEK293 cells [2]; time point 0,0
same,hek293_glo_emax_8,HEK293 cells [2]; time point 8,0
same,hek293_glo_pod_8,HEK293 cells [2]; time point 8,-4.417
same,hek293_glo_wauc_8,HEK293 cells [2]; time point 8,0
same,hek293_glo_emax_16,HEK293 cells [2]; time point 16,0
same,hek293_glo_pod_16,HEK293 cells [2]; time point 16,-4.417
same,hek293_glo_wauc_16,HEK293 cells [2]; time point 16,0
same,hek293_glo_emax_24,HEK293 cells [2]; time point 24,0
same,hek293_glo_pod_24,HEK293 cells [2]; time point 24,-4.417
same,hek293_glo_wauc_24,HEK293 cells [2]; time point 24,0
same,hek293_glo_emax_32,HEK293 cells [2]; time point 32,0
same,hek293_glo_pod_32,HEK293 cells [2]; time point 32,-4.417
same,hek293_glo_wauc_32,HEK293 cells [2]; time point 32,0
same,hek293_glo_emax_40,HEK293 cells [2]; time point 40,0
same,hek293_glo_pod_40,HEK293 cells [2]; time point 40,-4.417
same,hek293_glo_wauc_40,HEK293 cells [2]; time point 40,0
same,hek293_flor_auc,HEK293 cells [3],0
same,hek293_flor_time,HEK293 cells [3],48
same,hek293_flor_bin,HEK293 cells [3]; kinetics bin,inactive
same,hek293_flor_emax_0,HEK293 cells [3]; time point 0,0
same,hek293_flor_pod_0,HEK293 cells [3]; time point 0,-4.417
same,hek293_flor_wauc_0,HEK293 cells [3]; time point 0,0
same,hek293_flor_emax_8,HEK293 cells [3]; time point 8,0
same,hek293_flor_pod_8,HEK293 cells [3]; time point 8,-4.417
same,hek293_flor_wauc_8,HEK293 cells [3]; time point 8,0
same,hek293_flor_emax_16,HEK293 cells [3]; time point 16,0
same,hek293_flor_pod_16,HEK293 cells [3]; time point 16,-4.417
same,hek293_flor_wauc_16,HEK293 cells [3]; time point 16,0
same,hek293_flor_emax_24,HEK293 cells [3]; time point 24,0
same,hek293_flor_pod_24,HEK293 cells [3]; time point 24,-4.417
same,hek293_flor_wauc_24,HEK293 cells [3]; time point 24,0
same,hek293_flor_emax_32,HEK293 cells [3]; time point 32,0
same,hek293_flor_pod_32,HEK293 cells [3]; time point 32,-4.417
same,hek293_flor_wauc_32,HEK293 cells [3]; time point 32,0
same,hek293_flor_emax_40,HEK293 cells [3]; time point 40,0
same,hek293_flor_pod_40,HEK293 cells [3]; time point 40,-4.417
same,hek293_flor_wauc_40,HEK293 cells [3]; time point 40,0
same,hepg2_glo_auc,HepG2 cells [4],0
same,hepg2_glo_time,HepG2 cells [4],48
same,hepg2_glo_bin,HepG2 cells [4]; kinetics bin,inactive
same,hepg2_glo_emax_0,HepG2 cells [4]; time point 0,0
same,hepg2_glo_pod_0,HepG2 cells [4]; time point 0,-4.417
same,hepg2_glo_wauc_0,HepG2 cells [4]; time point 0,0
same,hepg2_glo_emax_8,HepG2 cells [4]; time point 8,0
same,hepg2_glo_pod_8,HepG2 cells [4]; time point 8,-4.417
same,hepg2_glo_wauc_8,HepG2 cells [4]; time point 8,0
same,hepg2_glo_emax_16,HepG2 cells [4]; time point 16,0
same,hepg2_glo_pod_16,HepG2 cells [4]; time point 16,-4.417
same,hepg2_glo_wauc_16,HepG2 cells [4]; time point 16,0
same,hepg2_glo_emax_24,HepG2 cells [4]; time point 24,0
same,hepg2_glo_pod_24,HepG2 cells [4]; time point 24,-4.417
same,hepg2_glo_wauc_24,HepG2 cells [4]; time point 24,0
same,hepg2_glo_emax_32,HepG2 cells [4]; time point 32,0
same,hepg2_glo_pod_32,HepG2 cells [4]; time point 32,-4.417
same,hepg2_glo_wauc_32,HepG2 cells [4]; time point 32,0
same,hepg2_glo_emax_40,HepG2 cells [4]; time point 40,0
same,hepg2_glo_pod_40,HepG2 cells [4]; time point 40,-4.417
same,hepg2_glo_wauc_40,HepG2 cells [4]; time point 40,0
same,information,[5],0
O=C1C2CC=CCC2C(=O)N1SC(Cl)(Cl)Cl (stereo not shown) [Captan],AUC score in Judson 2015,estrogen receptor (ER),0
"Clc1ccccc1C(c1ccccc1)(c1ccccc1)n1ccnc1 [Clotrimazole, reference compound]",AUC score in Judson 2015,estrogen receptor (ER),0.00844
